Results: ChEMBL document CHEMBL1201862, “PubChem BioAssay data set” (2004)
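Results reflect a 48-hour exposure of cells in 96-well plates to compound at five concentrations. Abbreviation: GI50, concentration required for 50% inhibition of growth.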 The source made the active and inactive calls. Cut-off read from the data, not from the text of the source: active = GI50 up to about 1.1 µM and inactive = higher.

How the values were obtained:
Test in all cases: NCI anticancer screen, dose series, 48 h
PC-3 = system: PC-3
RXF 393 = system: RXF 393
SNB-75 = system: SNB-75
OVCAR-5 = system: OVCAR-5
SN12C = system: SN12C
UO-31 = system: UO-31
IGROV-1 = system: IGROV-1
NCI-H522 = system: NCI-H522
UACC-257 = system: UACC-257
786-0 = system: 786-0
SK-MEL-2 = system: SK-MEL-2
CCRF-CEM = system: CCRF-CEM
NCI/ADR-RES = system: NCI/ADR-RES
RPMI-8226 = system: RPMI-8226
SK-OV-3 = system: SK-OV-3
NCI-H226 = system: NCI-H226
HL-60 = system: HL-60
MOLT-4 = system: MOLT-4
Hs-578T = system: Hs-578T
SNB-19 = system: SNB-19

Row | Compound | GI50 (PC-3) | GI50 (RXF 393) | GI50 (SNB-75) | GI50 (OVCAR-5) | GI50 (SN12C) | GI50 (UO-31) | GI50 (IGROV-1) | GI50 (NCI-H522) | GI50 (UACC-257) | GI50 (786-0) | GI50 (SK-MEL-2) | GI50 (CCRF-CEM) | GI50 (NCI/ADR-RES) | GI50 (RPMI-8226) | GI50 (SK-OV-3) | GI50 (NCI-H226) | GI50 (HL-60) | GI50 (MOLT-4) | GI50 (Hs-578T) | GI50 (SNB-19)
1 | O=C(CCc1ccc(O)c(O)c1)NCCc1ccc(O)c(O)c1 | > 100 µM (inactive) | > 100 µM (inactive) | > 100 µM (inactive) | > 100 µM (inactive) | 37.1 µM (inactive) | > 100 µM (inactive) | > 100 µM (inactive) | > 100 µM (inactive) | > 100 µM (inactive) | 18.6 µM (inactive) | 83.9 µM (inactive) | 27.9 µM (inactive) | > 100 µM (inactive) | > 100 µM (inactive) | > 100 µM (inactive) | > 100 µM (inactive) | 26.8 µM (inactive) | 57.7 µM (inactive) | > 100 µM (inactive) | > 100 µM (inactive)
2 | COc1ccc(NC(=O)CSC(=O)c2ccccc2)c(SCCSSCCSc2cc(OC)ccc2NC(=O)CSC(=O)c2ccccc2)c1 | > 100 µM (inactive) | > 100 µM (inactive) | > 100 µM (inactive) | > 100 µM (inactive) | > 100 µM (inactive) | 73.6 µM (inactive) | 67.5 µM (inactive) | > 100 µM (inactive) | > 100 µM (inactive) | > 100 µM (inactive) | 27.9 µM (inactive) | 79.6 µM (inactive) | > 100 µM (inactive) | > 100 µM (inactive) | 41.5 µM (inactive) | > 100 µM (inactive) | 4.22 µM (inactive) | 3.5 µM (inactive) | > 100 µM (inactive) | > 100 µM (inactive)
3 | O=C(c1ccccc1)N1OCCC1Nc1ccc(Br)cc1 (stereo not given) | 2.04 µM (inactive) | > 10 µM (inactive) | > 10 µM (inactive) | > 10 µM (inactive) | > 10 µM (inactive) | 1.87 µM (inactive) | > 10 µM (inactive) | > 10 µM (inactive) | > 10 µM (inactive) | > 10 µM (inactive) | > 10 µM (inactive) | 3.8 µM (inactive) | 5.43 µM (inactive) | 4.71 µM (inactive) | > 10 µM (inactive) | > 10 µM (inactive) | 3.47 µM (inactive) | 4 µM (inactive) | > 10 µM (inactive) | > 10 µM (inactive)
4 | CCc1cc2c(c3c1CCCC3=O)CC1(C2)Cc2cc(CC)c3c(c2C1)C(=O)CCC3 | 46.5 µM (inactive) | > 100 µM (inactive) | 30.5 µM (inactive) | > 100 µM (inactive) | > 100 µM (inactive) | > 100 µM (inactive) | > 100 µM (inactive) | 62.8 µM (inactive) | 57.4 µM (inactive) | > 100 µM (inactive) | > 100 µM (inactive) | 26.7 µM (inactive) | > 100 µM (inactive) | 46.9 µM (inactive) | > 100 µM (inactive) | > 100 µM (inactive) | 61 µM (inactive) | 35.2 µM (inactive) | > 100 µM (inactive) | > 100 µM (inactive)
5 | O=C1C(Cl)=C(N2CCC[C@@H]2CO)C(=O)c2c(O)ccc(O)c21 | 1.91 µM (inactive) | 1.6 µM (inactive) | 1.69 µM (inactive) | 1.69 µM (inactive) | 1.79 µM (inactive) | 1.82 µM (inactive) | 1.79 µM (inactive) | 1.12 µM (active) | 1.76 µM (inactive) | 1.76 µM (inactive) | 1.57 µM (inactive) | 0.244 µM (active) | 2.41 µM (inactive) | 0.395 µM (active) | 2.9 µM (inactive) | 1.71 µM (inactive) | 0.485 µM (active) | 0.269 µM (active) | 2.06 µM (inactive) | 1.66 µM (inactive)
6 | CC12CP(=O)(O)CC1C2(Cl)Cl (stereo not given) | > 100 µM (inactive) | > 100 µM (inactive) | > 100 µM (inactive) | > 100 µM (inactive) | > 100 µM (inactive) | 50.6 µM (inactive) | > 100 µM (inactive) | > 100 µM (inactive) | > 100 µM (inactive) | > 100 µM (inactive) | > 100 µM (inactive) | > 100 µM (inactive) | > 100 µM (inactive) | > 100 µM (inactive) | > 100 µM (inactive) | > 100 µM (inactive) | > 100 µM (inactive) | > 100 µM (inactive) | > 100 µM (inactive) | > 100 µM (inactive)
